Data: ChEMBL document CHEMBL1201862, “PubChem BioAssay data set” (2004)
The source made the active and inactive calls.

Key:
[1] = viability loss in THP-1 monocytes – THP-1 cells, cytotoxicity control for Vif-APOBEC3G degradation inhibitor project, dose response (AID 1117359); format: functional; conditions: THP-1
[2] = biological target: Heat shock protein HSP 90-alpha (Homo sapiens, UniProt P07900); format: functional, organism-based
[3] = biological target: T1, Type-1 angiotensin II receptor (Homo sapiens, UniProt P30556); experiment: antagonism of angiotensin II type 1 receptor – cell-based, uHTS hits, selectivity assay for APJ receptor antagonist project, dose response (AID 463214); format: functional;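 note: antagonist potency against angiotensin II stimulated AT1 response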
T1 sequence (P30556 whole entry): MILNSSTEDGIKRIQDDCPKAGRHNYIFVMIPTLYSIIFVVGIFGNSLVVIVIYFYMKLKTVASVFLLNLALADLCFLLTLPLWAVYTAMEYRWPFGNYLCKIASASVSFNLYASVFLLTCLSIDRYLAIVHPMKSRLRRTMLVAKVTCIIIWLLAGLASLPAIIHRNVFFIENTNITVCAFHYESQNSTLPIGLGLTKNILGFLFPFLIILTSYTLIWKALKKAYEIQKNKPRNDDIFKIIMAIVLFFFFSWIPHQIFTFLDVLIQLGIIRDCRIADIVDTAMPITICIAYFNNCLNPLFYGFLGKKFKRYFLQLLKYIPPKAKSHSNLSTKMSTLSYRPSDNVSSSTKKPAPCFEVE

Beta-galactosidase = Beta-galactosidase (Escherichia coli, UniProt Q8VNN2); experiment: PubChem AID 485352; format: functional
[4] = biological target: Adenosylmethionine-8-amino-7-oxononanoate aminotransferase (Mycobacterium tuberculosis, UniProt P9WQ81); experiment: Mycobacterium tuberculosis BioA enzyme inhibitor Measured in Biochemical System Using Plate Reader - 2163-02_Inhibitor_Dose_CherryPick_Activity.; format: functional, Mycobacterium tuberculosis UT205
Cytochrome P450 2C19 = Cytochrome P450 2C19 (Homo sapiens, UniProt P33261); experiment: Cytochrome panel assay with activity outcomes. Panel member name: p450-cyp2c19 Compounds with AC50 equal or less than 10 uM are considered active; format: functional; conditions: read-out: AC50
Cytochrome P450 1A2 = biological target: T2, Cytochrome P450 1A2 (Homo sapiens, UniProt P05177);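 note: PubChem cytochrome P450 panel assay, CYP1A2 panel member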
T2 sequence (P05177 whole entry): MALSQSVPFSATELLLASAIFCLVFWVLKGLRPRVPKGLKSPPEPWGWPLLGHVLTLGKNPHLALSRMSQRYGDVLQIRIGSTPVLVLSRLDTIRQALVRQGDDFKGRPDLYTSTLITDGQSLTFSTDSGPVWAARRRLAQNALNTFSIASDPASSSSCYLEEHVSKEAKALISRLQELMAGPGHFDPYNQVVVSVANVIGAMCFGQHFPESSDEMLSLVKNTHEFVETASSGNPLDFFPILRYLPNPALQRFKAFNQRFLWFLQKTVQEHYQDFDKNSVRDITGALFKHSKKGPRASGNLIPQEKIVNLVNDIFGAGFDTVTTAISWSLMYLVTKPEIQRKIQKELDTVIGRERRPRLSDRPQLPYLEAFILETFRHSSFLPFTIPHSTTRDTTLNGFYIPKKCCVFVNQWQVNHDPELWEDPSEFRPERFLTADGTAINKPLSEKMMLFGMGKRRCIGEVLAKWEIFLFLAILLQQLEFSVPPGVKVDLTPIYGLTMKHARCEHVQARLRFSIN

Melanocortin receptor 4 = Melanocortin receptor 4 (Homo sapiens, UniProt P32245); format: functional, cell-based;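 note: Cell-based assay with luminescence read-out, confirmatory dose-response testing for agonist activity of biased ligands at MC4R; human U2OS cells with tagged receptor and beta-arrestin; potency of agonists that increase receptor coupling to beta-arrestin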
[5] = biological target: DNA repair and recombination protein RAD54-like (Homo sapiens, UniProt Q92698); experiment: RAD54 Holliday junction migration blockers – biochemical, fluorescence, cherry-picked samples, dose series, confirmation (AID 651657); format: functional
[6] = viability of PTEN-deleted HCT116 cells – cell-based, HCT116 PTEN knockout, dose response (AID 1047); format: functional;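 note: HCT116 colon tumor cells with PTEN knocked out; cells exposed to compound for 60 hours before readout; potency for loss of cell viability measured by luminescence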
[7] = DRD fibroblast viability loss – cell-based, non-viral oncogenic, luminescence, dose response (AID 1934); format: functional; conditions: Homo sapiens
BJ [8] = experiment: cells; format: functional, cell-based; conditions: Homo sapiens
[9] = biological target: T3, Replicative DNA helicase DnaB (Mycobacterium tuberculosis, UniProt P9WMR3); experiment: DnaB intein splicing inhibitors, dose response, biochemical, cell-free fluorescence (AID 449749); format: functional
T3 sequence (P9WMR3 whole entry): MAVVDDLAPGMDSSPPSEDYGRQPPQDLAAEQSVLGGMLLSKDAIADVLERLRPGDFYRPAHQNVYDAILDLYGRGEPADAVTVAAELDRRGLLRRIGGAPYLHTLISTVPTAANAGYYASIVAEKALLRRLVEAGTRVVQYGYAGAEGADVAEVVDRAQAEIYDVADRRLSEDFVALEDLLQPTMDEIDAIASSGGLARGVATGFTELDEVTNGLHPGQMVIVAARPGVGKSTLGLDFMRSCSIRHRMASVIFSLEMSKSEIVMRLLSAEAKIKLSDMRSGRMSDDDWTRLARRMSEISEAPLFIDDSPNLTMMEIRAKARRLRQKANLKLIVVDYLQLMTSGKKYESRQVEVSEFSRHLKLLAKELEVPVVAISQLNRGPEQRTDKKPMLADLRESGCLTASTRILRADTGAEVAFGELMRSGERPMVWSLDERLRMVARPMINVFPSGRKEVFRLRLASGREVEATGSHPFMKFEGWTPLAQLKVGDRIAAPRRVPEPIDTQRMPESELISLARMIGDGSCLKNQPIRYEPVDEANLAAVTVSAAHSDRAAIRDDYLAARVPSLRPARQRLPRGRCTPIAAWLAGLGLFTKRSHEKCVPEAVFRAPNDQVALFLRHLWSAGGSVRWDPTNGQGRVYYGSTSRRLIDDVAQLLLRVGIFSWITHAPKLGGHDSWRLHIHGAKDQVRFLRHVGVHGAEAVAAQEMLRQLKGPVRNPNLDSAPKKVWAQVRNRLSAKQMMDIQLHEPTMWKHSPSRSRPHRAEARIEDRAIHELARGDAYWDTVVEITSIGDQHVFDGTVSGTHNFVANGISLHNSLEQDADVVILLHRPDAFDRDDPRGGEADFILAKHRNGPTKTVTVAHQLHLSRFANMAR

[10] = THP-1 cell cytotoxicity, dose response, cytotoxicity control for non-replicating M. tuberculosis project (AID 489025); format: functional
Protein RecA = biological target: T4, Protein RecA (Mycobacterium tuberculosis, UniProt P9WHJ3); experiment: Fluorescence Cell-Free Homogeneous Dose Retest to Identify Inhibitors of RecA-Intein Splicing Activity. [Related pubchem assays (depositor defined):AID2097, AID2223, AID489010, AID492950]; format: functional
T4 sequence (P9WHJ3 whole entry): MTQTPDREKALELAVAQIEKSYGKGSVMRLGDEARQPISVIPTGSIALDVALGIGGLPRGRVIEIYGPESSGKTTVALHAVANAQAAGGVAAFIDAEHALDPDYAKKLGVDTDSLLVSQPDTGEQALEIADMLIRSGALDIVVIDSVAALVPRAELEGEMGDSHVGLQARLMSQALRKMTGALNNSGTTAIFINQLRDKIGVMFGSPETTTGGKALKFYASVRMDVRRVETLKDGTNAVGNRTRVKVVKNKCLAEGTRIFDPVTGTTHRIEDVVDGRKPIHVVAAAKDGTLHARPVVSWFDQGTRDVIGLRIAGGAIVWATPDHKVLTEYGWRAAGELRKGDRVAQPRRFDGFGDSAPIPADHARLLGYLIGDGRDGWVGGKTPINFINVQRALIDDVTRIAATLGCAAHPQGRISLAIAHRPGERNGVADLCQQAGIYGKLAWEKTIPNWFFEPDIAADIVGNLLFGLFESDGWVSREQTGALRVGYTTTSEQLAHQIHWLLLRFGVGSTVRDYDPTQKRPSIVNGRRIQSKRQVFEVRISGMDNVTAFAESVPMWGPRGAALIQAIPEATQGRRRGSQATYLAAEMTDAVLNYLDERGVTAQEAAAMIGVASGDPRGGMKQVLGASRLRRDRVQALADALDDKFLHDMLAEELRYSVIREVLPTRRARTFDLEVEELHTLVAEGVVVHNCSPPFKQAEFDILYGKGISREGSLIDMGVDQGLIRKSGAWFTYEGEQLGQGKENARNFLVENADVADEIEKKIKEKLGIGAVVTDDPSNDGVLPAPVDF

[11] = viability of HCT116 lacking mutant beta-catenin – cell-based, human colon tumor, dose response (AID 1045); format: functional;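 note: HCT116 colon tumor cells with beta catenin knocked out; cells exposed to compound for 60 hours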
[12] = Fluorescence-based cell-based high throughput dose response assay for inhibitors of the interaction of nucleotide-binding oligomerization domain containing 2 (NOD2) and the receptor-interacting serine-threonine kinase 2 (RIPK2).; format: functional; conditions: Homo sapiens
[13] = HepG2 cell cytotoxicity, dose response, cytotoxicity control for non-replicating M. tuberculosis project (AID 489018); format: functional; conditions: Mycobacterium tuberculosis
Beta Lactamase = Beta Lactamase (Pseudomonas aeruginosa, UniProt Q932Y6); experiment: BLA reporter interference, concentration series – BLA reporter cells, FRET fluorescence, artefact control for NOD2-RIPK2 interaction inhibitor project, dose response (AID 651552); format: functional, cell-based
[14] = biological target: Neurotensin receptor type 1 (Homo sapiens, UniProt P30989); format: functional;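 note: Image-based confirmatory dose-response assay measuring agonist activity at NTR1; NTR1-expressing U2OS osteosarcoma cells imaged for beta-arrestin GFP spot formation; agonist potency where compounds increase beta-arrestin recruitment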
Vero = experiment: viability of Vero cells under compound – cytotoxicity control for flavivirus capping enzyme inhibitors (AID 588742); format: functional; conditions: Chlorocebus sabaeus
Genome polyprotein = Genome polyprotein (dengue virus type 2, UniProt P29990); experiment: flavivirus cap methylation enzyme inhibition – biochemical, confirmation dose response, primary screen (AID 588689); format: functional
INS1 = experiment: INS-1E survival protection against cytokine death – cell-based, luminescence, retest, dose response (AID 449756); format: functional; conditions: Rattus norvegicus;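 note: cell death triggered by IL-1 beta plus TNF-alpha plus IFN-gamma mixture; protective hits raise ATP signal compared with cytokine alone wells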
cells = format: functional
BJ [15] = experiment: BJ-TERT-LT-ST fibroblast viability loss – cell-based, RAS-independent, luminescence, dose response (AID 1935); format: functional; conditions: Homo sapiens;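 note: BJ fibroblasts immortalized with TERT plus LT and ST oncogenes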
[16] = Vero E6 cell cytotoxicity, dose response, cytotoxicity control for non-replicating M. tuberculosis project, secondary assay (AID 492998); format: functional, VeroE6; conditions: Vero C1008
H9c2 = experiment: cells; format: functional, cell-based; conditions: Rattus norvegicus, H9c2, Myocardium
Fatty acid synthase [17] = biological target: T5, Fatty acid synthase (Homo sapiens, UniProt P49327); experiment: inhibition of human FAS-TE enzyme activity – biochemical, endpoint fluorescence intensity, uHTS hits, dose response (AID 624327); format: functional;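 note: fluorescence from hydrolysis of an O-methyl fluorescein acyl ester substrate by the enzyme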
Fatty acid synthase [18] = biological target: T5, Fatty acid synthase; experiment: inhibition of human FAS-TE enzyme activity – biochemical, kinetic fluorescence intensity, dose response (AID 624326); format: functional;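 note: rate of fluorescence rise from hydrolysis of a fluorogenic O-methyl fluorescein ester substrate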
[19] = biological target: T6, Low molecular weight phosphotyrosine protein phosphatase (Homo sapiens, UniProt P24666); format: functional; conditions: read-out: IC50_Mean;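 note: Dose-response confirmation assay measuring inhibition of LMPTP enzyme activity by fluorescence intensity read-out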
T6 sequence (P24666 whole entry): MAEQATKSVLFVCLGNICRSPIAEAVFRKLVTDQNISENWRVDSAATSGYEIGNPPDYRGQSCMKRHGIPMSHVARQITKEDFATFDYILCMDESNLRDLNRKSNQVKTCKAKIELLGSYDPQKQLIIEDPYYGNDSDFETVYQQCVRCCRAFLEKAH

T5 sequence (P49327 whole entry): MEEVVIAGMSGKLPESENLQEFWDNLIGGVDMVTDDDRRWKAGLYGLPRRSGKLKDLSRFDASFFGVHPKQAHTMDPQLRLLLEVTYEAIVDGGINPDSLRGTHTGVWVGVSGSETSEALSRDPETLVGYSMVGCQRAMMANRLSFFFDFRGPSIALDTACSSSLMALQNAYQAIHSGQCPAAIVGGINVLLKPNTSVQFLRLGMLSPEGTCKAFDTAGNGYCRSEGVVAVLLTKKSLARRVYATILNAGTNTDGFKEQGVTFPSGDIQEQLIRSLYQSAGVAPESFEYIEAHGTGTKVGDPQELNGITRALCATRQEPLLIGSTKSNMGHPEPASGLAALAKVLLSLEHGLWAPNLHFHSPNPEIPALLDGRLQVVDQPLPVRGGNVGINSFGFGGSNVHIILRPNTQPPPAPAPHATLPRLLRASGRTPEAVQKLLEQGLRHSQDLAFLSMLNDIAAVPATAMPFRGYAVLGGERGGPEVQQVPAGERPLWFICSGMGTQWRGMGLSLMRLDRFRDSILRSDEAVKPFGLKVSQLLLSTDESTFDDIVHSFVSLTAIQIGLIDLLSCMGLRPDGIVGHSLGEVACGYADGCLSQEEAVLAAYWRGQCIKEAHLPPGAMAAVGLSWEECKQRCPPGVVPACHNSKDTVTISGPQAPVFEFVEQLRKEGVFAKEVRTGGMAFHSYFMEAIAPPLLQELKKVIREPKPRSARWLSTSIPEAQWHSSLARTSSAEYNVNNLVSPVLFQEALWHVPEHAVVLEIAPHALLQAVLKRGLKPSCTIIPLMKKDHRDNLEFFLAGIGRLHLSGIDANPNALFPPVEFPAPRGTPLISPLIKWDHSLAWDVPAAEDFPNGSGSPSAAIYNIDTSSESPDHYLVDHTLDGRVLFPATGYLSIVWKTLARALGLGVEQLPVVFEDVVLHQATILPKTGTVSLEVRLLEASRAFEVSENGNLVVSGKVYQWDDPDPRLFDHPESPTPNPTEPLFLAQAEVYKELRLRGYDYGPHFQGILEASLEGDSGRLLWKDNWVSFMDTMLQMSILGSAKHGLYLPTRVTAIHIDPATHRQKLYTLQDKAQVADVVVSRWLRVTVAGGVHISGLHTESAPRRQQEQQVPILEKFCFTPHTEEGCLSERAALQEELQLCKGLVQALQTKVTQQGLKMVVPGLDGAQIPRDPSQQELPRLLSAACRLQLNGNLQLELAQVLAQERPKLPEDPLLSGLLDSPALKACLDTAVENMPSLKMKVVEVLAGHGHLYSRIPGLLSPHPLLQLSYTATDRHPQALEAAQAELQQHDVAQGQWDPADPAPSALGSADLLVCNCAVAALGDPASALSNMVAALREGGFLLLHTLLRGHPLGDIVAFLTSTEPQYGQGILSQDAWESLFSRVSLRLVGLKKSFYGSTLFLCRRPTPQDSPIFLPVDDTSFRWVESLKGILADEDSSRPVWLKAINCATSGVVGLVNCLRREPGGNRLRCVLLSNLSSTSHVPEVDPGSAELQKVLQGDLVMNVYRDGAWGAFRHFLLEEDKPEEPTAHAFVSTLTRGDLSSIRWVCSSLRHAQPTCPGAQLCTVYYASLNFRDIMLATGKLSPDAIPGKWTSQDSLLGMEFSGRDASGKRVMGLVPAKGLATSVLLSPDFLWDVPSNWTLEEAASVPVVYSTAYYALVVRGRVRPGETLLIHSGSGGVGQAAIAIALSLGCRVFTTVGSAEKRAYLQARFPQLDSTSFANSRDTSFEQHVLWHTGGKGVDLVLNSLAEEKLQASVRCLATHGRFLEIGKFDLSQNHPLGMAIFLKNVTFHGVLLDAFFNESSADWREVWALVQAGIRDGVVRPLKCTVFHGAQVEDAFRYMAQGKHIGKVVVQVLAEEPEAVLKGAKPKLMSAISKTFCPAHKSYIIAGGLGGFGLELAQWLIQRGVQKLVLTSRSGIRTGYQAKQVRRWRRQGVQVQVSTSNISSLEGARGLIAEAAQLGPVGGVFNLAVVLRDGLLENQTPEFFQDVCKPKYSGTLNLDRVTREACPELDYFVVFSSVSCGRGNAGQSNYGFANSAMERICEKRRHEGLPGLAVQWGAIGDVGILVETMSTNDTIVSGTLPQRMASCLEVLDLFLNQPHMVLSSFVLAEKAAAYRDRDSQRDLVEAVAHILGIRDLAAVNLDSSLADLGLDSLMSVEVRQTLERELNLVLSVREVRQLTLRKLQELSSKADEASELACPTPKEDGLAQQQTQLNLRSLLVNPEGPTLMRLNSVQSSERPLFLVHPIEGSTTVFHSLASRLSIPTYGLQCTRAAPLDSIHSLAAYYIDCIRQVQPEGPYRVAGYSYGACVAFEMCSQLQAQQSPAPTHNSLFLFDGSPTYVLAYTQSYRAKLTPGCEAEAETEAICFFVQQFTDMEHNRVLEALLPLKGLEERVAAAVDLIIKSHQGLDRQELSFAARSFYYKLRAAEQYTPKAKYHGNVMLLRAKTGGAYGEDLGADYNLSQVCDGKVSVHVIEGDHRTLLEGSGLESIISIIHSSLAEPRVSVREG
Sequence of Adenosylmethionine-8-amino-7-oxononanoate aminotransferase (P9WQ81 whole entry): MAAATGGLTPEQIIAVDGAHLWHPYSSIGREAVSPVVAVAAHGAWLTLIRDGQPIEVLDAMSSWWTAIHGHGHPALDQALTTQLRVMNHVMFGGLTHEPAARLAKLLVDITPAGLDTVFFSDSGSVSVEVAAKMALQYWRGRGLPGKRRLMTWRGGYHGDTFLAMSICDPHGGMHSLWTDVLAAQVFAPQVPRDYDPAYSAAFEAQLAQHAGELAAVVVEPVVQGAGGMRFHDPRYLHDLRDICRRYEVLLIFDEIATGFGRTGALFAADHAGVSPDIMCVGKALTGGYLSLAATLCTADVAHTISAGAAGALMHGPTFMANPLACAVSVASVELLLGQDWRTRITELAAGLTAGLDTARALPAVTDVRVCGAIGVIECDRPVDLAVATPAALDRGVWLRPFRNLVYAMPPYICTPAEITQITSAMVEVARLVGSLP
Sequence of Beta Lactamase (Q932Y6 whole entry): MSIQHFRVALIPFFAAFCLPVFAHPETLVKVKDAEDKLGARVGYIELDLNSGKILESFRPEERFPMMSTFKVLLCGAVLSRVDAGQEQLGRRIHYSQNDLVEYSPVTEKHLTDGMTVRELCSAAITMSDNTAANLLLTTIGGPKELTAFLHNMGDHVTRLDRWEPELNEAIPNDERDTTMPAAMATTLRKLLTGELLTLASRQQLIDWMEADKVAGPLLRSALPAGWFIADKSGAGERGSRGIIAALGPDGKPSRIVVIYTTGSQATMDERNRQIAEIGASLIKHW
Sequence of Melanocortin receptor 4 (P32245 whole entry): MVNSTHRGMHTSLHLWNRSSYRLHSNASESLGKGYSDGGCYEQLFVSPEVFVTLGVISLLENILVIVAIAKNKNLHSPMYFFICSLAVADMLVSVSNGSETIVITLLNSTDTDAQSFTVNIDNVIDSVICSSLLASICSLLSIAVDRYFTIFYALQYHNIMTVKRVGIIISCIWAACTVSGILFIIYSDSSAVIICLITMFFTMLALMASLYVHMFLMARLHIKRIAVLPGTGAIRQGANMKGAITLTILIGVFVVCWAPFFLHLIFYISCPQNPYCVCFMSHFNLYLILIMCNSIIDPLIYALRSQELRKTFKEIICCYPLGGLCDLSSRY
Sequence of DNA repair and recombination protein RAD54-like (Q92698 whole entry): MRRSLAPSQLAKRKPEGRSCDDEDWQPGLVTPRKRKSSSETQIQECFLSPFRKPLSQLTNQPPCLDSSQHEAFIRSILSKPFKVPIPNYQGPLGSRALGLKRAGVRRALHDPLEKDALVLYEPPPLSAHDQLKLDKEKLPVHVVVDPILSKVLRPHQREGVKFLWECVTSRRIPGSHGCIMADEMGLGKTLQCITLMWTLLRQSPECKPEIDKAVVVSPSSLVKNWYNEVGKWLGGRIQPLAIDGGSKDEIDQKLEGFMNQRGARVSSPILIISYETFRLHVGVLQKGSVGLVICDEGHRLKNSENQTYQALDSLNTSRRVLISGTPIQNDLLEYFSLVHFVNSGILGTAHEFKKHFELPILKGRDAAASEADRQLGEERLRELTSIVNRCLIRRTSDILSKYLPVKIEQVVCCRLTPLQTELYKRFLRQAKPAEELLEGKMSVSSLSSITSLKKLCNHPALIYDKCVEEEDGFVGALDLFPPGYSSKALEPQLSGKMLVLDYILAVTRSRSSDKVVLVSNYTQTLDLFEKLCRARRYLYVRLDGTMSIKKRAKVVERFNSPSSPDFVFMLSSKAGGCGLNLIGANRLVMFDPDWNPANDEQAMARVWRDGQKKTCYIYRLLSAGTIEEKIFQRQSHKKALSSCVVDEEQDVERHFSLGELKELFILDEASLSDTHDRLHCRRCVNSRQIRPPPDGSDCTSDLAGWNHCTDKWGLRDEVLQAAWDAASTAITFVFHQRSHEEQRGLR
Sequence of Cytochrome P450 2C19 (P33261 whole entry): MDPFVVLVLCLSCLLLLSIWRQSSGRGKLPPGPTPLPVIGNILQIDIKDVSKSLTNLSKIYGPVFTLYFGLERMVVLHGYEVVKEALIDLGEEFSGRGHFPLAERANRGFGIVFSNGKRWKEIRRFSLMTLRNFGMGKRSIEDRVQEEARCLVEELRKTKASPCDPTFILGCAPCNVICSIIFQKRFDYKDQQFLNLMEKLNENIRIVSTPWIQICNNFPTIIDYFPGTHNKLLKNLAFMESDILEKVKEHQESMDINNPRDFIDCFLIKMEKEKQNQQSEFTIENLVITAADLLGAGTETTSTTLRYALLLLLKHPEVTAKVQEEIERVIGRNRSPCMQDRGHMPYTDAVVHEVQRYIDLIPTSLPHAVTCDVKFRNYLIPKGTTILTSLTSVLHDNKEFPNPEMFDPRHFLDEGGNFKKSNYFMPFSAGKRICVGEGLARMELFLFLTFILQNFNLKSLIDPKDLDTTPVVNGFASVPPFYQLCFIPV

## Cc1ccc(C(C[N+](=O)[O-])Sc2ccc(N)cc2)cc1 (stereo not given)
[1]
  CC50: > 40 µM (active)
[2]
  AC50: 4.99 µM (active)
[3]
  IC50: 16.9 µM (active)
Beta-galactosidase
  EC50: 31.3 µM (active)

## Cc1cc(/C=C(/C#N)C(=O)Nc2ccccc2)c(C)n1-c1cccnc1
[4]
  AC50: 0.306 µM (active)
Cytochrome P450 2C19
  AC50: 2 µM (inconclusive)
Cytochrome P450 1A2
  AC50: 1.78 µM (inconclusive)

## COc1ccc(COc2ccsc2C(=O)Nc2ccc(Cl)c(Cl)c2)cc1
Melanocortin receptor 4
  EC50: > 89.2 µM (inactive)

## COc1ccc(OC)c2c(C)cc(NCCN3CCOCC3)nc12
[5]
  AC50: 37.6 µM (active)

## CC1=NNC(=O)/C1=C\c1cn(-c2ccccc2)nc1-c1cccs1
[6]
  EC50: 7.38 µM (active)
[7]
  EC50: 5.32 µM (active)
BJ [8]
  EC50: 4.55 µM (inconclusive)
[9]
  AC50: 3.97 µM (active)
[2]
  AC50: 1.87 µM (active)
[10]
  CC50: 7.31 µM (active)
Protein RecA
  EC50: 1.44 µM (active)
[11]
  EC50: 7.11 µM (active)
[12]
  IC50: 1.55 µM (active)
[13]
  CC50: 9.49 µM (active)
Beta Lactamase
  IC50: 49.8 µM (inactive)
[14]
  EC50: 5.14 µM (active)
Vero
  CC50: 10.9 µM (active)
Genome polyprotein
  IC50: > 100 µM (active)
INS1
  AC50: 7.34 µM (active)
cells
  IC50: 24.8 µM (active)
BJ [15]
  EC50: 13 µM (active)
[16]
  CC50: 9.79 µM (active)

## Cc1cccc(-n2c(SCC(=O)N(C)C3CCS(=O)(=O)C3)nc3ccccc3c2=O)c1C (stereo not given)
[4]
  AC50: 3.13 µM (active)

## COc1cccc(-c2cnc3c(NC(C)=O)cc(-c4cc(OC)c(OC)c(OC)c4)cn23)c1
Melanocortin receptor 4
  EC50: > 89.2 µM (inactive)
H9c2
  IC50: > 79 µM (inactive)

## CCOC(=O)[C@]12Cc3cc(C)ccc3[C@H]1N(C1CCCCC1)C(=O)c1ccccc12
[12]
  IC50: 2.28 µM (active)
Fatty acid synthase [17]
  IC50: 6.98 µM (active)
Beta Lactamase
  IC50: 39 µM (inactive)
Fatty acid synthase [18]
  IC50: 6.17 µM (active)

## CCOc1ccc(C(=O)N/N=C/c2cc([N+](=O)[O-])cs2)cc1
[19]
  IC50: 14.4 µM (active)
